Read-outs that look alike come from different tables or passages of the source.
Assays:
[1] = test system: duplex-form calf thymus DNA (CT-DNA); assay: Thermal denaturation studies with calf thymus DNA (DNA binding affinity); settings: [PBD]:[DNA] 1:5, CT-DNA 100 μM, ligand 20 μM, pH 7.00
Protocol: Compounds have been subjected to thermal denaturation studies with duplex-form calf thymus DNA (CT-DNA) using an modification of a reported procedure (Newman, M. S. Carcinog-compr. Surv. 1976,1, 203; (b) Hecht, S. S.; Loy, M.; Hoffman, Carcinog-compr. Surv. 1976, 1, 325). Working solutions in aqueous buffer (10 mM NaH2PO4/Na2HPO4, 1 mM Na2EDTA, pH 7.00+0.01) containing CT-DNA (100 μm in phosphate) and the PBD (20 μm) have been prepared by addition of concentrated PBD solutions in DMSO to obtain a fixed [PBD]/[DNA] molar ratio of 1:5. The DNA-PBD solutions have been incubated at 37° C. for 0 and 18 h prior to analysis. Samples have been monitored at 260 using a Beckman DU-800 spectrophotometer fitted with high performance temperature controller, and heated at 1° C. min^−1 in the 40-110° C. range. DNA helix→coil transition temperatures (Tm) have been obtained from the maxima in the d(A260)/dT derivative plots. Drug-induced alterations in DNA melting behavior are given by: ΔTm=Tm(DNA+PBD)−Tm(DNA alone), where the Tm value for the PBD-free CT-DNA is 69.1±0.01.
The DNA binding activity for these novel C8-linked benzothiazole, benzoxazole-PBD hybrids has been examined by thermal denaturation studies using calf thymus (CT) DNA. […] The data for the compounds 9a-n is included in Table 7 for comparison.

[2] = test system: A 2780 (ovary cancer) cell line; assay: cells; assay type: cell-based; settings: for GI50: mean of three determinations; for CC50: read-out: LC50 A 2780, 50% cell death
Protocol: (§1) Anticancer activity: In vitro biological activity studies were carried out at the Advance Center for Treatment Research & Education in Cancer (ACTREC), Navi Mumbai.
(§2) The compounds were evaluated for in vitro anticancer activity against eight tumour cells lines derived from seven cancer types (non-small-cell lung, colon, oral, cervix, ovarian, prostate, and breast cancer) as shown in Table 2. For each compound, dose response curves for each cell line were measured at a minimum of five concentrations at 10 fold dilutions. A protocol of 48 h continuous drug exposure was used and a sulforhodamine B (SRB) protein assay was used to estimate cell viability or growth. The concentration causing 50% cell growth inhibition (GI50) and 50% cell death (LC50, −50% growth) compared with the control was calculated. Compounds 9a-9l have been evaluated for their in vitro cytotoxicity in eight cell lines from seven human cancer types of lung (Hop-62, A-549) colon (COLO-205) cervix (Si—Ha), ovary (A-2780), prostate (PC3) breast (MCF7), oral (KB). The results are expressed as percent of cell growth determined relative to that of untreated control cells (Table-8 and table-9).

[3] = test system: A 549 (lung cancer) cell line; assay: cells; assay type: cell-based; settings: for GI50: mean of three determinations
Protocol: as §1, §2

[4] = test system: Colo 205 (colon cancer) cell line; assay: cells; assay type: cell-based; settings: for GI50: mean of three determinations; for CC50: read-out: LC50 Colo 205
Protocol: as §1, §2

[5] = test system: HOP 62 (lung cancer) cell line; assay: cells; assay type: cell-based; settings: for GI50: mean of three determinations; for LC50: read-out: LC50 HOP 62, 50% cell death
Protocol: as §1, §2

[6] = test system: MCF 7 (breast cancer) cell line; assay: cells; assay type: cell-based; settings: for GI50: read-out: GI50 MCF 7; for LC50 (concentration causing 50% cell death): read-out: LC50 MCF 7, 50% cell death
Protocol: as §1, §2

[7] = test system: PC 3 (prostate cancer) cell line; assay: cells; assay type: cell-based; settings: for GI50: read-out: GI50 PC 3; for CC50: read-out: LC50 Pc 3, 50% cell death
Protocol: as §1, §2

[8] = test system: SiHa (cervix cancer) cell line; assay: cells; assay type: cell-based; settings: for GI50: mean of three determinations; for LC50 (concentration causing 50% cell death): read-out: LC50 SiHa, 50% cell death
Protocol: as §1, §2

[9] = test system: KB (oral cancer) cell line; assay: In vitro anticancer activity, SRB assay, KB; assay type: cell-based, human; settings: for GI50: mean of three determinations; for CC50: read-out: LC50 KB, 50% cell death
Protocol: as §1, §2

[10] = test system: eight tumour cells lines derived from seven cancer types; assay: In vitro anticancer activity, SRB assay, panel of eight cell lines; assay type: cell-based; settings: Homo sapiens, range over the eight cell lines per compound; read-out: GI50 range against cancer cell lines
Protocol: as §1, §2

[11] = test system: duplex-form calf thymus DNA (CT-DNA); settings: comparative data, hybrids without piperazine, cited from earlier work
[12] = test system: MCF 7 (breast cancer) cell line; settings: comparative data, hybrids without piperazine; read-out: GI50 MCF 7 (hybrides with out piperazine); cited from earlier work
[13] = test system: Colo 205 (colon cancer) cell line; settings: comparative data, hybrids without piperazine; read-out: GI50 Colo 205 (hybrides with out piperazine); cited from earlier work
[14] = test system: PC 3 (prostate cancer) cell line; settings: comparative data, hybrids without piperazine; read-out: GI50 PC 3 (hybrides with out piperazine); cited from earlier work
[15] = test system: A 549 (lung cancer) cell line; settings: comparative data, hybrids without piperazine; read-out: GI50 A 549 (hybrides with out piperazine); cited from earlier work
[16] = test system: HOP 62 (lung cancer) cell line; settings: comparative data, hybrids without piperazine; read-out: GI50 HOP 62 (hybrides with out piperazine); cited from earlier work
[17] = test system: IGROV1 (ovary cancer) cell line; settings: comparative data, hybrids without piperazine; read-out: GI50 IGROV1 (hybrides with out piperazine); cited from earlier work
SNB-19 cell line = settings: comparative data, hybrids without piperazine; read-out: GI50 SNB-19 (hybrides with out piperazine); cited from earlier work
A498 cell line = settings: comparative data, hybrids without piperazine; read-out: GI50 A498 (hybrides with out piperazine); cited from earlier work
[18] = Homo sapiens, A2780, 48 h, read-out: GI50 A 2780, 48 h drug exposure, SRB
[19] = Homo sapiens, A2780, 48 h, 48 h drug exposure, SRB
[20] = Homo sapiens, A549, 48 h, read-out: GI50 A 549, 48 h drug exposure, SRB
[21] = Homo sapiens, A549, 48 h, read-out: LC50 A 549, 50% cell death, 48 h drug exposure, SRB
[22] = Homo sapiens, COLO 205, 48 h, read-out: GI50 Colo 205, 48 h drug exposure, SRB
[23] = Homo sapiens, HOP-62, 48 h, 48 h drug exposure, SRB
[24] = Homo sapiens, MCF7, 48 h, 48 h drug exposure, SRB
[25] = Homo sapiens, 48 h, 48 h drug exposure, SRB
[26] = Homo sapiens, SiHa, 48 h, read-out: GI50 SiHa, 48 h drug exposure, SRB
[27] = Homo sapiens, SiHa, 48 h, 48 h drug exposure, SRB
[28] = Homo sapiens, 48 h, read-out: GI50 KB, 48 h drug exposure, SRB
[29] = read-out: GI50 HOP 62, 48 h drug exposure, SRB
[30] = 48 h drug exposure, SRB, mean of three determinations

SMILES	ΔTm after incubation at 37° C. for 0 h [1]	ΔTm after incubation at 37° C. for 18 h [1]	GI50 [2, 18]	CC50 [2, 19]	GI50 [3, 20]	CC50 [3, 21]	GI50 [4, 22]	CC50 ([4]; Homo sapiens, COLO 205, 48 h)	LC50 [5, 23]	GI50 ([6]; Homo sapiens, MCF7, 48 h)	LC50 (concentration causing 50% cell death) [6, 24]	GI50 ([7]; Homo sapiens, 48 h)	CC50 [7, 25]	GI50 [8, 26]	LC50 (concentration causing 50% cell death) [8, 27]	GI50 [9, 28]	CC50 [9, 25]	GI50 [10]	GI50 [5, 29]	ΔTm after incubation at 37° C. for 0 h (PBD hybrids with out piperizine) [11]	also measured
COc1cc(-c2nc3ccccc3o2)ccc1OCCCN1CCN(CCCOc2cc3c(cc2OC)C(=O)N2CCC[C@H]2C=N3)CC1 [Compound 9j]	10.1 °C	10.3 °C	< 0.01 µM	0.139 µM	< 0.01 µM	> 100 µM	0.11 µM	> 100 µM	2.3 µM	< 0.01 µM	< 0.01 µM	< 0.01 µM	2.5 µM	< 0.01 µM	28 µM	< 0.01 µM	0.2 µM	≤ 0.11 µM			GI50 ([5]; Homo sapiens, HOP-62, 48 h, read-out: GI50 HOP 62, 48 h drug exposure, SRB): < 0.01 µM
COc1cc2c(cc1OCCCN1CCN(CCCOc3cccc(-c4nc5ccccc5o4)c3)CC1)N=C[C@@H]1CCCN1C2=O [Compound 9k, 7-Methoxy-8-[3-(4-{3-[3(1,3-benzoxazol-2-yl)-phenoxy]propyl}piperazin-1-yl)propyl]oxy-(11aS)-1,2,3,11a-tetrahydro-5H-pyrrolo[2,1-c][1,4]benzodiazepin-5-one]	9.7 °C	10.2 °C	0.086 µM	2.16 µM	< 0.01 µM	> 100 µM	0.17 µM	> 100 µM	25 µM	< 0.01 µM	2.6 µM	< 0.01 µM	26 µM	0.13 µM	27.8 µM	0.11 µM		≤ 0.17 µM	0.01 µM		
COc1cc2c(cc1OCCCCN1CCN(CCCCOc3ccc(-c4nc5ccccc5s4)cc3)CC1)N=C[C@@H]1CCCN1C2=O [Compound 9l, 7-Methoxy-8-[4-(4-{4-[4(1,3-benzothiazol-2-yl)-phenoxy]butyl}piperazin-1-yl)butyl]oxy-(11aS)-1,2,3,11a-tetrahydro-5H-pyrrolo[2,1-c][1,4]benzodiazepin-5-one]	11.5 °C	11.8 °C		2.1 µM				> 100 µM			0.16 µM		2.1 µM		28 µM		2 µM	≤ 0.125 µM	0.11 µM		GI50 ([2]; read-out: GI50 A 2780, 48 h drug exposure, SRB): 0.099 µM; CC50 ([3]; human, 48 h): 30 µM; GI50 ([3]; read-out: GI50 A 549, 48 h drug exposure, SRB): < 0.01 µM; GI50 ([4]; read-out: GI50 Colo 205, 48 h drug exposure, SRB): < 0.01 µM; CC50 ([5]; human, 48 h): 2.5 µM; GI50 [6, 30]: < 0.01 µM; GI50 [7, 30]: < 0.01 µM; GI50 ([8]; read-out: GI50 SiHa, 48 h drug exposure, SRB): 0.125 µM; GI50 ([9]; 48 h drug exposure, SRB, listed as 91, read-out: GI50 KB): 0.11 µM; GI50 ([9]; 48 h drug exposure, SRB, read-out: GI50 KB): 0.11 µM
COc1cc2c(cc1OCCCCOc1ccc(-c3nc4ccccc4s3)cc1)N=C[C@@H]1CCCN1C2=O [Compound 20a]																				0.5 °C	ΔTm after incubation at 37° C. for 18 h (PBD hybrids with out piperizine) [11]: 0.5 °C; GI50 [12]: 0.32 µM; GI50 [13]: 0.34 µM; GI50 [14]: 0.29 µM; GI50 [15]: 2.63 µM; GI50 [16]: 0.406 µM; GI50 [17]: 2.42 µM; GI50 (SNB-19 cell line): 1.52 µM; GI50 (A498 cell line): 2.02 µM
COc1cc(-c2nc3ccccc3s2)ccc1OCCCCOc1cc2c(cc1OC)C(=O)N1CCC[C@H]1C=N2 [Compound 20b]																				0.5 °C	ΔTm after incubation at 37° C. for 18 h (PBD hybrids with out piperizine) [11]: 0.5 °C; GI50 [12]: 0.4 µM; GI50 [13]: 0.69 µM; GI50 [14]: 0.41 µM; GI50 [15]: 2.66 µM; GI50 [16]: 1.41 µM; GI50 [17]: 3.06 µM; GI50 (SNB-19 cell line): 1.61 µM; GI50 (A498 cell line): 1.6 µM
